Legend:
Format in all cases: physicochemical
[1] = Thermogravimetric analysis (TGA) of Form I, dehydration; settings: under nitrogen purge, 10° C./min
Procedure: Thermogravimetric analysis (TGA) data was obtained using 2.01 mg PMPA Form I and was heated at a rate of 10° C./min over the range of 25 to 350° C. The solids lost about 6.1% water below 100° C., and the loss is very close to the theoretical water content of 5.9% for PMPA monohydrate.

[2] = XRPD patterns during heating (70, 80, 90° C.), form transition; settings: XRPD patterns at 70, 80, and 90° C. during the heating period
[3] = Storage of Form IV in a sealed vial, checked by XRPD; settings: kept in a sealed vial at ambient temperature
Excerpt: Form IV was obtained by keeping Form VI in water at ambient temperature for 3 weeks.

| dehydration temperature (TGA) [1] | transition from monohydrate (Form I) to an anhydrous form [2] | change of sample by XRPD analysis on storage [3] | SMILES |
| --- | --- | --- | --- |
| about 50 °C | around 80 °C | – | C[C@H](Cn1cnc2c(N)ncnc21)OCP(=O)(O)O [Form I, (R)-9-[2-(phosphonomethoxy)propyl]adenine] |
| – | – | did not change | C[C@H](Cn1cnc2c(N)ncnc21)OCP(=O)(O)O [Form IV, (R)-9-[2-(phosphonomethoxy)propyl]adenine] |
